Data as given in patent US8729122B2, “Pharmaceutical and nutraceutical compositions of abscisic acid” (Valent BioSciences Corporation, priority 2010, dated 2014).
Values joined by “and” are separate entries in the source; they are usually repeats but may differ in a detail not shown here. Equal values may be shown once.

What was measured:
rats [1] = assay: 90-Day Oral Toxicity Study in Rodents (dietary S-ABA); format: in vivo; details: for PROSTATE WEIGHT, mean: 90 days
Experimental: Tests were conducted with (S)-(+)-abscisic acid in accordance with standard guidelines and procedures as evidenced by EPA Subchronic Toxicity Test Guidelines: 870.3050—Repeated Dose 28-Day Oral Toxicity Study in Rodents (July 2000); 870.3100—90-Day Oral Toxicity in Rodents (August 1998); 870.3650—Combined Repeated Dose Toxicity Study with the Reproduction/Developmental Toxicity Screening Test (July 2000); and 870.3200—21/28-Day Dermal Toxicity (August 1998), as well as Organization for Economic Co-operation and Development (OECD) Guidelines for the Testing of Chemicals including: Test No. 407: Repeated Dose 28-day Oral Toxicity Study in Rodents; Test No. 408: Repeated Dose 90-Day Oral Toxicity Study in Rodents; Test No. 416: Two-Generation Reproduction Toxicity; and Test No. 410: Repeated Dose Dermal Toxicity: 21/28-day Study.
90-Day Oral Toxicity Study in Rodents
From the batch supplied (42 males and 42 females), 40 males and 40 females were assigned to the study. Animals were allocated to 4 dose groups and treated as follows:
The animals were dosed by the dietary route 7 days/week for 13 consecutive weeks and up to immediately before terminal kill. Control animals received blank diet only. The concentration was constant throughout the treatment period. Detailed examinations were conducted on all animals during Weeks 4, 8 and 12. Histopathological evaluation of all tissues was undertaken for all animals in the Control and dose groups. Observations and testing results from this study can be seen in Tables 2, 4 and 5 below.
In a 90 day toxicity study in rats, glucose and triglyceride levels were measured.

rats [2] = assay: 21-day Dermal Toxicity Study, removal of adhesive bandage; format: in vivo; details: for Total No. of Removals (adhesive bandage), individual animals: 3 weeks
Experimental: Animals were allocated to dose groups and treated as follows:
Animals were dosed daily by dermal administration, with an exposure period of 6 hours, 7 days/week for a period of 3 weeks.
The lumbar region of the animals was clipped to expose the skin (approximately 6×6 cm) with the test formulation being spread evenly over this area. A dressing of foil gauze and self adhesive bandage was wrapped around the torso to prevent oral ingestion. Following 6 hours of exposure the dressings were removed and the dose area wiped clean with a cloth dampened with distilled water.
During the dosing period it was noted that some animals were able to get the adhesive bandage off during the 6 hour exposure period.

With CC1=CC(=O)CC(C)(C)[C@@]1(O)/C=C/C(C)=C\C(=O)O [S-ABA, (S)-(+)-abscisic acid] the “PROSTATE WEIGHT, mean” value (rats [1]; group 2, 2,000 ppm in diet) was “MEAN = 0.731 GRAMS”, the “PROSTATE WEIGHT, mean” value (rats [1]; group 3, 6,000 ppm in diet) was “MEAN = 0.908 GRAMS” and the “PROSTATE WEIGHT, mean” value (rats [1]; group 4, 20,000 ppm in diet) was “MEAN = 0.827 GRAMS”. The “effect on triglyceride levels” value (rats [1]; male and female rats, 2,000 ppm to 20,000 ppm) was “dose dependent decrease in triglyceride levels”, the “ability to remove the adhesive bandage” value (rats [2]; female rats in the treatment group) was “much better at removing the adhesive bandage” and the “Total No. of Removals (adhesive bandage), individual animals” value (from here on “Total No. of Removals (adhesive bandage)”) (rats [2]; group 2F, females, 100 mg/kg/day dermal, 100 mg/kg/day) was 4 and 1. For the same compound, the “Total No. of Removals (adhesive bandage)” value (rats [2]; group 2M, males, 100 mg/kg/day dermal) was 1, the “Total No. of Removals (adhesive bandage)” value (rats [2]; group 3F, females, 300 mg/kg/day dermal, 300 mg/kg/day) was 2 and 3 and the “Total No. of Removals (adhesive bandage)” value (rats [2]; group 4F, females, 1000 mg/kg/day dermal, 1000 mg/kg/day) was 3 and 7 and 6. For the same compound, the “Total No. of Removals (adhesive bandage)” value (rats [2]; group 4M, males, 1000 mg/kg/day dermal) was 1.
